In patent US7160888B2, “[1,8]naphthyridin-2-ones and related compounds for the treatment of schizophrenia” (Warner Lambert Company LLC, priority 2003, dated 2007):

Target: D2 receptor (Homo sapiens, UniProt P14416)
Assay: [3H]Thymidine uptake assay for D2 intrinsic activity
Assay type: cell-based
Settings: test compound 1 μM, 1 μM Quinpirole = 100% intrinsic activity

Chain of D2 receptor (P14416 whole entry): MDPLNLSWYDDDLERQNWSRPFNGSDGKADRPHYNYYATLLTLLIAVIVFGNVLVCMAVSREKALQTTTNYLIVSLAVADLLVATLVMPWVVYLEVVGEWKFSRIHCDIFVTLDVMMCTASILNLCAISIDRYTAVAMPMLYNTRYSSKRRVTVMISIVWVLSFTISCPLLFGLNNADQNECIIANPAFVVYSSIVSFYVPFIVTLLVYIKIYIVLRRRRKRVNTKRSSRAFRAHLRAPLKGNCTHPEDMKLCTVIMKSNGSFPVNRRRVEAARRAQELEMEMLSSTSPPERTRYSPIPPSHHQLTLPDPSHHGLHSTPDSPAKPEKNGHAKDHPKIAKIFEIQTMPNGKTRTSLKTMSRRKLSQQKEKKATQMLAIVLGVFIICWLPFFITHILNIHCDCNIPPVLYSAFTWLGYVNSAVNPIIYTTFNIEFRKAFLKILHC

`CC(C)COc1ccccc1N1CCN(CCCCOc2ccc3c(n2)NC(=O)CC3)CC1` [Example A27, 7-{4-[4-(2-Isobutoxy-phenyl)-piperazin-1-yl]-butoxy}-3,4-dihydro-1H-[1,8]naphthyridin-2-one] showed an Emax at 1 µM (Table 1) of 38%.

`Cc1cc2c(N3CCN(CCCCOc4ccc5c(n4)NC(=O)CC5)CC3)cccc2[nH]1` [Example A27′, 7-{4-[4-(2-Methyl-1H-indol-4-yl)-piperazin-1-yl]-butoxy}-3,4-dihydro-1H-[1,8]naphthyridin-2-one] showed an Emax at 1 µM (Table 2) of 21%.

In the case of `O=C1CCc2ccc(OCCCCN3CCN(c4cccc5sccc45)CC3)nc2N1` [Example A28′, 7-[4-(4-Benzo[b]thiophen-4-yl-piperazin-1-yl)-butoxy]-3,4-dihydro-1H-[1,8]naphthyridin-2-one], the Emax at 1 µM (Table 2) is reported as 21%.

For `CCc1c(Cl)cccc1N1CCN(CCCCOc2ccc3c(n2)NC(=O)CC3)CC1` [Example A29, 7-{4-[4-(3-Chloro-2-ethyl-phenyl)-piperazin-1-yl]-butoxy}-3,4-dihydro-1H-[1,8]naphthyridin-2-one], the Emax at 1 µM (Table 1) was 20%.

`O=C1CCc2ccc(OCCCCN3CCN(c4cccc5nonc45)CC3)nc2N1` [Example A29′, 7-[4-(4-Benzo[1,2,5]oxadiazol-4-yl-piperazin-1-yl)-butoxy]-3,4-dihydro-1H-[1,8]naphthyridin-2-one] showed an Emax at 1 µM (Table 2) of 33%.

Compound `CC(=O)c1c(F)cccc1N1CCN(CCCCOc2ccc3c(n2)NC(=O)CC3)CC1` [Example A30, 7-{4-[4-(2-Acetyl-3-fluoro-phenyl)-piperazin-1-yl]-butoxy}-3,4-dihydro-1H-[1,8]naphthyridin-2-one] has an Emax at 1 µM (Table 1) of 11%.

`O=C1CCc2ccc(OCCCCN3CCN(c4cccc5nsnc45)CC3)nc2N1` [Example A30′, 7-[4-(4-Benzo[1,2,5]thiadiazol-4-yl-piperazin-1-yl)-butoxy]-3,4-dihydro-1H-[1,8]naphthyridin-2-one] showed an Emax at 1 µM (Table 2) of 41%.

Work on `CCc1c(F)cccc1N1CCN(CCCCOc2ccc3c(n2)NC(=O)CC3)CC1` [Example A31, 7-{4-[4-(2-Ethyl-3-fluoro-phenyl)-piperazin-1-yl]-butoxy}-3,4-dihydro-1H-[1,8]naphthyridin-2-one] yielded an Emax at 1 µM (Table 1) of 26%.

`CN1CCCc2c1cccc2N1CCN(CCCCOc2ccc3c(n2)NC(=O)CC3)CC1` [Example A32′, 7-{4-[4-(1-Methyl-1,2,3,4-tetrahydro-quinolin-5-yl)-piperazin-1-yl]-butoxy}-3,4-dihydro-1H-[1,8]naphthyridin-2-one] showed an Emax at 1 µM (Table 2) of 27%.

Compound `CC(=O)c1cccc(N2CCN(CCCCOc3ccc4c(n3)NC(=O)CC4)CC2)c1` [Example A33, 7-{4-[4-(3-Acetyl-phenyl)-piperazin-1-yl]-butoxy}-3,4-dihydro-1H-[1,8]naphthyridin-2-one] has an Emax at 1 µM (Table 1) of 31%.

`CCN1CCCc2c1cccc2N1CCN(CCCCOc2ccc3c(n2)NC(=O)CC3)CC1` [Example A33′, 7-{4-[4-(1-Ethyl-1,2,3,4-tetrahydro-quinolin-5-yl)-piperazin-1-yl]-butoxy}-3,4-dihydro-1H-[1,8]naphthyridin-2-one] was tested, and the Emax at 1 µM (Table 2) was 18%.

Work on `CC(=O)c1ccccc1N1CCN(CCCCOc2ccc3c(n2)NC(=O)CC3)CC1` [Example A34, 7-{4-[4-(2-Acetyl-phenyl)-piperazin-1-yl]-butoxy}-3,4-dihydro-1H-[1,8]naphthyridin-2-one] yielded an Emax at 1 µM (Table 1) of 8%.

Compound `O=C1CCc2ccc(OCCCCN3CCN(c4cccc5cccnc45)CC3)nc2N1` [Example A34′, 7-[4-(4-Quinolin-8-yl-piperazin-1-yl)-butoxy]-3,4-dihydro-1H-[1,8]naphthyridin-2-one] has an Emax at 1 µM (Table 2) of 38%.

Work on `CCc1ccccc1N1CCN(CCCCOc2ccc3c(n2)NC(=O)CC3)CC1` [Example A35, 7-{4-[4-(2-Ethyl-phenyl)-piperazin-1-yl]-butoxy}-3,4-dihydro-1H-[1,8]naphthyridin-2-one] yielded an Emax at 1 µM (Table 1) of 24%.

`O=C1CCc2ccc(OCCCCN3CCN(c4cccc5ncccc45)CC3)nc2N1` [Example A35′, 7-[4-(4-Quinolin-5-yl-piperazin-1-yl)-butoxy]-3,4-dihydro-1H-[1,8]naphthyridin-2-one] showed an Emax at 1 µM (Table 2) of 20%.

With `O=C1CCc2ccc(OCCCCN3CCN(c4cccc5ccncc45)CC3)nc2N1` [Example A36′, 7-[4-(4-Isoquinolin-8-yl-piperazin-1-yl)-butoxy]-3,4-dihydro-1H-[1,8]naphthyridin-2-one] the Emax at 1 µM (Table 2) was 62%.

For `O=C1CCc2ccc(OCCCCN3CCN(c4ccccc4C(F)(F)F)CC3)nc2N1` [Example A37, 7-{4-[4-(2-Trifluoromethyl-phenyl)-piperazin-1-yl]-butoxy}-3,4-dihydro-1H-[1,8]naphthyridin-2-one], the Emax at 1 µM (Table 1) was 46%.

With `O=C1CCc2ccc(OCCCCN3CCN(c4cccc5cnccc45)CC3)nc2N1` [Example A37′, 7-[4-(4-Isoquinolin-5-yl-piperazin-1-yl)-butoxy]-3,4-dihydro-1H-[1,8]naphthyridin-2-one] the Emax at 1 µM (Table 2) was 45%.

Work on `O=C1CCc2ccc(OCCCCN3CCN(c4cccc(C(F)(F)F)c4)CC3)nc2N1` [Example A38, 7-{4-[4-(3-Trifluoromethyl-phenyl)-piperazin-1-yl]-butoxy}-3,4-dihydro-1H-[1,8]naphthyridin-2-one] yielded an Emax at 1 µM (Table 1) of 23%.

For `O=C1CCc2ccc(OCCCCN3CCN(c4cccc5ncc(F)cc45)CC3)nc2N1` [Example A38′, 7-{4-[4-(3-Fluoro-quinolin-5-yl)-piperazin-1-yl]-butoxy}-3,4-dihydro-1H-[1,8]naphthyridin-2-one], the Emax at 1 µM (Table 2) was 20%.

`O=C1CCc2ccc(OCCCCN3CCN(c4ccccc4)CC3)nc2N1` [Example A39, 7-[4-(4-phenyl-piperazin-1-yl)-butoxy]-3,4-dihydro-1H-[1,8]naphthyridin-2-one] gave an Emax at 1 µM (Table 1) of 56%.

For `O=C1CCc2ccc(OCCCCN3CCN(c4ccc(F)cc4)CC3)nc2N1` [Example A40, 7-{4-[4-(4-Fluoro-phenyl)-piperazin-1-yl]-butoxy}-3,4-dihydro-1H-[1,8]naphthyridin-2-one], the Emax at 1 µM (Table 1) was 32%.

In the case of `Cc1ccc2cccc(N3CCN(CCCCOc4ccc5c(n4)NC(=O)CC5)CC3)c2n1` [Example A40′, 7-{4-[4-(2-Methyl-quinolin-8-yl)-piperazin-1-yl]-butoxy}-3,4-dihydro-1H-[1,8]naphthyridin-2-one], the Emax at 1 µM (Table 2) is reported as 30%.

`O=C1CCc2ccc(OCCCCN3CCN(c4ccc(F)cc4F)CC3)nc2N1` [Example A41, 7-{4-[4-(2,4-Difluoro-phenyl)-piperazin-1-yl]-butoxy}-3,4-dihydro-1H-[1,8]naphthyridin-2-one] gave an Emax at 1 µM (Table 1) of 28%.

For `COc1ccc2cccc(N3CCN(CCCCOc4ccc5c(n4)NC(=O)CC5)CC3)c2n1` [Example A41′, 7-{4-[4-(2-Methoxy-quinolin-8-yl)-piperazin-1-yl]-butoxy}-3,4-dihydro-1H-[1,8]naphthyridin-2-one], the Emax at 1 µM (Table 2) was 32%.

`CC(F)(F)c1ccccc1N1CCN(CCCCOc2ccc3c(n2)NC(=O)CC3)CC1` [Example A42, 7-(4-{4-[2-(1,1-Difluoro-ethyl)-phenyl]-piperazin-1-yl}-butoxy)-3,4-dihydro-1H-[1,8]naphthyridin-2-one] was tested, and the Emax at 1 µM (Table 1) was 28%.

In the case of `O=C1CCc2ccc(OCCCCN3CCN(c4ccccn4)CC3)nc2N1` [Example A43, 7-[4-(4-Pyridin-2-yl-piperazin-1-yl)-butoxy]-3,4-dihydro-1H-[1,8]naphthyridin-2-one], the Emax at 1 µM (Table 1) is reported as 75%.
